From US20240024273A1, “TOPICAL ADMINISTRATION OF 2-(DIETHYLAMINO)ETHYL 2-(4-ISOBUTYLPHENYL)PROPRIONATE FOR TREATMENT OF DISEASES” (TECHFIELDS PHARMA CO., LTD., priority 2020, published 2024)

Tested on: osteoarthritis of the knee
Test: Second Phase 2 study: WOMAC stiffness subscale score
Format: in vivo, human
Excerpt: For subjects with bilateral knee pain, both knees will be treated, but the most symptomatic knee (ie, the most painful knee as measured by the Western Ontario and McMaster University Osteoarthritis Index [WOMAC® 3.1] pain subscale score at Screening) will be designated as the target knee for efficacy analyses. For subjects with unilateral knee pain, only the symptomatic (target) knee will be treated.
The VAS version of the WOMAC will be used for the Primary and Secondary Efficacy Endpoints. Efficacy endpoints will be assessed at Screening and Baseline (Day 1) and at the Week 2, Week 4, Week 8, and Week 12/EOS visits.
4.9.2. Secondary Efficacy Endpoints: • 1. Change from Baseline in the WOMAC (VAS) pain subscale score for the target knee at 2, 8, and 12 weeks of treatment; • 2. Change from Baseline in the WOMAC (VAS) stiffness subscale scores for the target knee and WOMAC (VAS) functional ability subscale scores at 2, 4, 8, and 12 weeks of treatment; • 3. Change from Baseline in the overall WOMAC (VAS) score at 2, 4, 8, and 12 weeks of treatment; • 4. Subject's global assessment of disease status of the target knee at 2, 4, 8, and 12 weeks of treatment; • 5. Subject's global assessment of response to therapy of the target knee at 2, 4, 8, and 12 weeks of treatment; • 6. Amount of rescue medication (acetaminophen) consumed per day for target knee pain.
The Secondary Efficacy Endpoints, change from Baseline in the WOMAC subscale scores for pain, stiffness, and functional ability, and overall WOMAC score at 2, 4, 8, and 12 weeks of treatment, will be analyzed using the same methods as for the Primary Efficacy Endpoint.

[1] = 17.5 mg/knee BID, Week 12, first 130 subjects
[2] = Week 12, 4.375 mg/knee BID (n = 23), first 130 subjects
[3] = Week 12, 8.75 mg/knee BID (n = 24), first 130 subjects
[4] = Week 12, 17.5 mg/knee BID (n = 19), first 130 subjects
[5] = all subjects, 4.375 mg/knee BID, n = 49, Week 12
[6] = all subjects, 8.75 mg/knee BID, n = 54, Week 12
[7] = all subjects, 17.5 mg/knee BID, n = 52, Week 12

`CCN(CC)CCOC(=O)C(C)c1ccc(CC(C)C)cc1` (centres unmarked) [2-(diethylamino)ethyl 2-(4-isobutylphenyl)propionate] was tested, and the “WOMAC stiffness, difference from oral ibuprofen” value [1] was −12.4 mm, the “WOMAC stiffness, difference from placebo” value [1] was −19.1 mm and the “WOMAC Joint Stiffness Subscale Score, Day 1, Avg.” value (Avg. of all patients (blinded), Low Dose (2 spray/knee, 8.75 mg/knee) Cohort, Day 1) was 64.2. The “WOMAC Joint Stiffness Subscale Score, Week 2, Avg.” value (Avg. of all patients (blinded), Low Dose (2 spray/knee, 8.75 mg/knee) Cohort, Week 2) was 52.5, the “WOMAC Joint Stiffness Subscale Score, Week 4, Avg.” value (Avg. of all patients (blinded), Low Dose (2 spray/knee, 8.75 mg/knee) Cohort, Week 4) was 45.7 and the “WOMAC Joint Stiffness Subscale Score, Week 8, Avg.” value (Avg. of all patients (blinded), Low Dose (2 spray/knee, 8.75 mg/knee) Cohort, Week 8) was 42.3. The “WOMAC Joint Stiffness Subscale Score, Week 12, Avg.” value (Avg. of all patients (blinded), Low Dose (2 spray/knee, 8.75 mg/knee) Cohort, Week 12) was 41.8, the “WOMAC Stiffness Subscale Scores, Baseline (LS Mean)” value (4.375 mg/knee BID (n = 23), first 130 subjects) was 50.2 mm and the “WOMAC Stiffness Subscale Scores, Baseline (LS Mean)” value (8.75 mg/knee BID (n = 24), first 130 subjects) was 52.4 mm. The “WOMAC Stiffness Subscale Scores, Baseline (LS Mean)” value (17.5 mg/knee BID (n = 19), first 130 subjects) was 57.6 mm, the “WOMAC Stiffness Subscale Scores, % of improvement from Oral Ibuprofen” value [2] was 0.6% and the “WOMAC Stiffness Subscale Scores, % of improvement from Placebo” value [2] was −9.7%. The “WOMAC Stiffness Subscale Scores, % of improvement from baseline” value [2] was −35.9%, the “WOMAC Stiffness Subscale Scores, Changes from Baseline (LS Mean)” value (“WOMAC Stiffness Subscale Scores, Changes” for short) [2] was −18.0 mm and the “WOMAC Stiffness Subscale Scores, Different from placebo (LS Mean)” value [2] was −4.0 mm. For the same compound, the “WOMAC Stiffness Subscale Scores, Week 12 (LS Mean)” value [2] was 32.2 mm, the “WOMAC Stiffness Subscale Scores, % of improvement from Oral Ibuprofen” value [3] was −2.4% and the “WOMAC Stiffness Subscale Scores, % of improvement from Placebo” value [3] was −12.7%. The “WOMAC Stiffness Subscale Scores, % of improvement from baseline” value [3] was −38.9%, the “WOMAC Stiffness Subscale Scores, Changes” value [3] was −20.4 mm and the “WOMAC Stiffness Subscale Scores, Different from oral ibuprofen (LS Mean)” value [3] was 0.2 mm. The “WOMAC Stiffness Subscale Scores, Different from placebo (LS Mean)” value [3] was −6.4 mm, the “WOMAC Stiffness Subscale Scores, Week 12 (LS Mean)” value [3] was 32.0 mm and the “WOMAC Stiffness Subscale Scores, % of improvement from Oral Ibuprofen” value [4] was −21.0%. For the same compound, the “WOMAC Stiffness Subscale Scores, % of improvement from Placebo” value [4] was −31.3%, the “WOMAC Stiffness Subscale Scores, % of improvement from baseline” value [4] was −57.5% and the “WOMAC Stiffness Subscale Scores, Changes” value [4] was −33.1 mm. For the same compound, the “WOMAC Stiffness Subscale Scores, Different from oral ibuprofen (LS Mean)” value [4] was −12.4 mm, the “WOMAC Stiffness Subscale Scores, Different from placebo (LS Mean)” value [4] was −19.1 mm and the “WOMAC Stiffness Subscale Scores, Week 12 (LS Mean)” value [4] was 24.6 mm. For the same compound, the “WOMAC Stiffness Subscale Scores, % of improvement from Oral Ibuprofen” value [5] was 4.7%, the “WOMAC Stiffness Subscale Scores, % of improvement from Placebo” value [5] was −2.2% and the “WOMAC Stiffness Subscale Scores, % of improvement from baseline” value [5] was −34.6%. For the same compound, the “WOMAC Stiffness Subscale Scores, Changes” value [5] was −16.9 mm, the “WOMAC Stiffness Subscale Scores, Week 12 (LS Mean)” value [5] was 31.9 mm and the “WOMAC Stiffness Subscale Scores, % of improvement from Oral Ibuprofen” value [6] was −2.8%. For the same compound, the “WOMAC Stiffness Subscale Scores, % of improvement from Placebo” value [6] was −9.7%, the “WOMAC Stiffness Subscale Scores, % of improvement from baseline” value [6] was −42.1% and the “WOMAC Stiffness Subscale Scores, Changes” value [6] was −23.3 mm. For the same compound, the “WOMAC Stiffness Subscale Scores, Different from oral ibuprofen (LS Mean)” value [6] was −3.0 mm, the “WOMAC Stiffness Subscale Scores, Different from placebo (LS Mean)” value [6] was −6.7 mm and the “WOMAC Stiffness Subscale Scores, Week 12 (LS Mean)” value [6] was 32.0 mm. The “WOMAC Stiffness Subscale Scores, % of improvement from Oral Ibuprofen” value [7] was −8.0%, the “WOMAC Stiffness Subscale Scores, % of improvement from Placebo” value [7] was −14.9% and the “WOMAC Stiffness Subscale Scores, % of improvement from baseline” value [7] was −47.3%. For the same compound, the “WOMAC Stiffness Subscale Scores, Changes” value [7] was −25.2 mm and the “WOMAC Stiffness Subscale Scores, Different from oral ibuprofen (LS Mean)” value [7] was −4.9 mm.
